From patent US20250235460A1, “COMBINATION THERAPY USING GLUCOSE-DEPENDENT INSULINOTROPIC POLYPEPTIDE RECEPTOR ANTAGONIST COMPOUNDS AND GLP-1 RECEPTOR AGONIST COMPOUNDS” (Pfizer Inc., priority 2024, published 2025) come the findings set out here.

For orientation: EC50 means the concentration needed to bring the measured effect to its halfway point. The term Emax denotes the maximal effect, on the per cent scale that the assay sets.

Assay [1] has as its target human GLP-1R (Homo sapiens, UniProt P43220, G168S). As to the kind of experiment: CHO GLP-1R Clone H6 cAMP HTRF agonist assay (Assay 1, high receptor density). The format is cell-based. The conditions noted are these: for EC50: CHO GLP-1R clone H6, cAMP HTRF, geometric mean; for Emax: CHO GLP-1R clone H6, arithmetic mean, relative to saturating GLP-1 (1 μM), read-out: Assay 1 Emax (%). The method in brief: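 From replicate determinations, mean EC50 (geometric) and mean Emax (arithmetic) were derived and expressed to two significant figures.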

Assay [2] concerns the target human GLP-1R (Homo sapiens, UniProt P43220, L260F). As to the kind of experiment: CHO GLP-1R Clone C6 cAMP HTRF agonist assay (Assay 2, low receptor density). The assay is classed as cell-based. To be noted: for EC50: CHO GLP-1R clone C6, cAMP HTRF, geometric mean; for Emax: CHO GLP-1R clone C6, arithmetic mean, relative to saturating GLP-1 (1 μM). An excerpt:
In Table 5 and Table 6, assay data are presented to two (2) significant figures as the geometric mean (EC50s) and arithmetic mean (Emax) based on the number of replicates listed (Number). A blank cell means there was no data for that Example or the Emax was not calculated.

human GLP-1R (Homo sapiens, UniProt P43220, G168S), sequence (P43220 24-463 G168S): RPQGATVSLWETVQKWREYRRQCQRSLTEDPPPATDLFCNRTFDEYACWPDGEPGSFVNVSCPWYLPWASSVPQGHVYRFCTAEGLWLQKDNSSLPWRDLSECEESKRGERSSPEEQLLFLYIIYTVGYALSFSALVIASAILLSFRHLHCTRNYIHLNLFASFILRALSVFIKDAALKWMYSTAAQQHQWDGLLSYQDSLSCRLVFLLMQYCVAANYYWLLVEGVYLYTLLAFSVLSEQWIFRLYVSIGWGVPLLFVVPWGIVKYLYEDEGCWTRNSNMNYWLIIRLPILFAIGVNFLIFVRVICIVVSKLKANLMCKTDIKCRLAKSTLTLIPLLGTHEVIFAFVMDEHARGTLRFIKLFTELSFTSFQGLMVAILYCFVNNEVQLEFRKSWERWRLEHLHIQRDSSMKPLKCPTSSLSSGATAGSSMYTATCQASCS
human GLP-1R (Homo sapiens, UniProt P43220, L260F), sequence (P43220 24-463 L260F): as the sequence (P43220 24-463 G168S) above, with S145G, L237F counted along it

Turning to `O=C(O)c1ccc2nc(CN3CCC(c4cccc(OCc5ccc(Cl)cc5F)n4)CC3)n(CCN3CCOC3=O)c2c1` [Compound 295B, 2-[(4-{6-[(4-chloro-2-fluorobenzyl)oxy]pyridin-2-yl}piperidin-1-yl)methyl]-1-[2-(2-oxo-1,3-oxazolidin-3-yl)ethyl]-1H-benzimidazole-6-carboxylic acid], the midpoint of the response at human GLP-1R [1], the EC50, lay at 87 nM. On human GLP-1R [2], this compound gave an EC50 of 3100 nM and an Emax of 110%.
Turning to `CN1CCOC(CCn2c(CN3CCC(c4cccc(OCc5ccc(Cl)cc5F)n4)CC3)nc3ccc(C(=O)O)cc32)C1` (stereo not shown) [Compound 286B, 2-[(4-{6-[(4-chloro-2-fluorobenzyl)oxy]pyridin-2-yl}piperidin-1-yl)methyl]-1-[2-(4-methylmorpholin-2-yl)ethyl]-1H-benzimidazole-6-carboxylic acid], at human GLP-1R [1], the EC50 amounted to 25 nM and the Emax is 78%. At human GLP-1R [2], the EC50 amounted to 330 nM and the Emax came to 96%.
For the compound `N#Cc1ccc(COc2cccc(C3CCN(Cc4nc5ccc(C(=O)O)cc5n4Cc4ccon4)CC3)n2)c(F)c1` [Compound 161B, 2-[(4-{6-[(4-cyano-2-fluorobenzyl)oxy]pyridin-2-yl}piperidin-1-yl)methyl]-1-(1,2-oxazol-3-ylmethyl)-1H-benzimidazole-6-carboxylic acid], the EC50 amounted to 1.1 nM at human GLP-1R [1] and 13 nM on human GLP-1R [2]. Also, the figures for the Emax at human GLP-1R [1] and at human GLP-1R [2] were 79% and 100%, respectively.
Take `C[C@H]1CN(c2cccc(OCc3ccc(C#N)cc3F)n2)CCN1Cc1nc2ccc(C(=O)O)cc2n1Cc1ncco1` [Compound 146B, 2-{[(2S)-4-{6-[(4-cyano-2-fluorobenzyl)oxy]pyridin-2-yl}-2-methylpiperazin-1-yl]methyl}-1-(1,3-oxazol-2-ylmethyl)-1H-benzimidazole-6-carboxylic acid]: on human GLP-1R [1], the EC50 stood at 43 nM and the Emax was 82%. On human GLP-1R [2], this compound came in with an EC50 of 680 nM and an Emax of 110%.
In the case of `O=C(O)c1ccc2nc(CN3CCC(c4cccc(OCc5ccc(Cl)cc5F)n4)CC3)n(Cc3ncco3)c2n1` [Compound 167B, 2-[(4-{6-[(4-chloro-2-fluorobenzyl)oxy]pyridin-2-yl}piperidin-1-yl)methyl]-3-(1,3-oxazol-2-ylmethyl)-3H-imidazo[4,5-b]pyridine-5-carboxylic acid], at human GLP-1R [1], the EC50 is 18 nM and the Emax came to 84%. At human GLP-1R [2], the EC50 turned out to be 350 nM and the Emax is 77%.
In the case of `Cn1nccc1Cn1c(CN2CCC(c3cccc(OCc4ccc(Cl)cc4F)n3)CC2)nc2ccc(C(=O)O)cc21` [Compound 296B, 2-[(4-{6-[(4-chloro-2-fluorobenzyl)oxy]pyridin-2-yl}piperidin-1-yl)methyl]-1-[(1-methyl-1H-pyrazol-5-yl)methyl]-1H-benzimidazole-6-carboxylic acid], on human GLP-1R [1], the concentration giving a half-maximal response (EC50) worked out at 96 nM and the Emax is 86%. Further, on human GLP-1R [2], the EC50 was determined as 1400 nM and the Emax amounted to 94%.
Take `CCn1c(CN2CCC(c3cccc(OCc4ccc(Cl)cc4F)n3)CC2)nc2ccc(C(=O)O)cc21` [Compound 257B, 2-[(4-{6-[(4-chloro-2-fluorobenzyl)oxy]pyridin-2-yl}piperidin-1-yl)methyl]-1-ethyl-1H-benzimidazole-6-carboxylic acid]: at human GLP-1R [1], it took 8.6 nM to reach a half-maximal effect (EC50) and the Emax stood at 78%. Also, at human GLP-1R [2], a half-maximal effect (EC50) was put at 88 nM and the Emax was determined as 82%.
The like results for `Cc1nc2nc(CN3CCC(c4cccc(OCc5ccc(Cl)cc5F)n4)CC3)n(C)c2cc1C(=O)O` [Compound 209B, 2-[(4-{6-[(4-chloro-2-fluorobenzyl)oxy]pyridin-2-yl}piperidin-1-yl)methyl]-1,5-dimethyl-1H-imidazo[4,5-b]pyridine-6-carboxylic acid] were, in that order, 7 nM, 59%, 190 nM and 80%.
With `Cn1cncc1Cn1c(CN2CCC(c3cccc(OCc4ccc(Cl)cc4F)n3)CC2)nc2ccc(C(=O)O)cc21` [Compound 143B, 2-[(4-{6-[(4-chloro-2-fluorobenzyl)oxy]pyridin-2-yl}piperidin-1-yl)methyl]-1-[(1-methyl-1H-imidazol-5-yl)methyl]-1H-benzimidazole-6-carboxylic acid], on human GLP-1R [1], a half-maximal response (EC50) required 140 nM and the Emax was found to be 72%. At human GLP-1R [2], this compound gave an EC50 of 1600 nM and a maximum response (Emax) of 46%.
On to `C[C@H]1CN(c2cccc(OCc3ccc(C#N)cc3F)n2)CCN1Cc1nc2ccc(C(=O)O)cc2n1C[C@@H]1CCO1` [Compound 115B, 2-{[(2S)-4-{6-[(4-cyano-2-fluorobenzyl)oxy]pyridin-2-yl}-2-methylpiperazin-1-yl]methyl}-1-[(2S)-oxetan-2-ylmethyl]-1H-benzimidazole-6-carboxylic acid], for which, at human GLP-1R [1], the EC50 was determined as 0.95 nM and the Emax came to 92%. Also, at human GLP-1R [2], the EC50 worked out at 17 nM and the Emax came out at 120%.
For `O=C(O)c1ccc2nc(CN3CCC(c4cccc(OCc5ccc(Cl)cc5F)n4)CC3)n(CCn3cncn3)c2c1` [Compound 292B, 2-[(4-{6-[(4-chloro-2-fluorobenzyl)oxy]pyridin-2-yl}piperidin-1-yl)methyl]-1-[2-(1H-1,2,4-triazol-1-yl)ethyl]-1H-benzimidazole-6-carboxylic acid], in that order: 55 nM, 71%, 1700 nM and 99%.
The like results for `Cn1ccnc1Cn1c(CN2CCC(c3cccc(OCc4ccc(Cl)cc4F)n3)CC2)nc2ccc(C(=O)O)cc21` [Compound 256B, 2-[(4-{6-[(4-chloro-2-fluorobenzyl)oxy]pyridin-2-yl}piperidin-1-yl)methyl]-1-[(1-methyl-1H-imidazol-2-yl)methyl]-1H-benzimidazole-6-carboxylic acid] were, in that order, 3.4 nM, 79%, 53 nM and 68%.
Consider `O=C(O)c1ccc2nc(CN3CCC(c4cccc(OCc5ccc(Cl)cc5F)n4)CC3)n(C3CCOC3)c2c1` (stereo not shown) [Compound 301B, 2-[(4-{6-[(4-chloro-2-fluorobenzyl)oxy]pyridin-2-yl}piperidin-1-yl)methyl]-1-(tetrahydrofuran-3-yl)-1H-benzimidazole-6-carboxylic acid], for which the EC50 is 120 nM on human GLP-1R [1] and 1500 nM on human GLP-1R [2]. For the same compound, the Emax on human GLP-1R [1] stood at 80%; on human GLP-1R [2], 92%.
As for `O=C(O)c1ccc2nc(CN3CCC(c4cccc(OCc5ccc(Cl)cc5F)n4)CC3)n(Cc3c[nH]nn3)c2c1` [Compound 298B, 2-[(4-{6-[(4-chloro-2-fluorobenzyl)oxy]pyridin-2-yl}piperidin-1-yl)methyl]-1-(1H-1,2,3-triazol-4-ylmethyl)-1H-benzimidazole-6-carboxylic acid], the EC50 turned out to be 110 nM at human GLP-1R [1] and 2700 nM at human GLP-1R [2]. Besides, the Emax on human GLP-1R [1] amounted to 74%.
Regarding `CC(C)c1cc(Cn2c(CN3CCC(c4cccc(OCc5ccc(Cl)cc5F)n4)CC3)nc3ccc(C(=O)O)cc32)on1` [Compound 281B, 2-[(4-{6-[(4-chloro-2-fluorobenzyl)oxy]pyridin-2-yl}piperidin-1-yl)methyl]-1-{[3-(propan-2-yl)-1,2-oxazol-5-yl]methyl}-1H-benzimidazole-6-carboxylic acid], the EC50 on human GLP-1R [1] was found to be 14 nM; on human GLP-1R [2] it was 270 nM. Further, the figures for the Emax at human GLP-1R [1] and on human GLP-1R [2] were 80% and 92%, respectively.
Turning to `COC[C@@H]1C[C@H]1Cn1c(CN2CCC(c3cccc(OCc4ccc(Cl)cc4F)n3)CC2)nc2ccc(C(=O)O)cc21` [Compound 197B, 2-[(4-{6-[(4-chloro-2-fluorobenzyl)oxy]pyridin-2-yl}piperidin-1-yl)methyl]-1-{[(1R,2R)-2-(methoxymethyl)cyclopropyl]methyl}-1H-benzimidazole-6-carboxylic acid], the figures for the EC50 on human GLP-1R [1] and on human GLP-1R [2] were 8.1 nM and 220 nM, respectively. For the same compound, the values for the Emax on human GLP-1R [1] and at human GLP-1R [2] were 74% and 93%, respectively.
As to `CCn1nncc1Cn1c(CN2CCC(c3cccc(OCc4ccc(C#N)cc4F)n3)CC2)nc2ccc(C(=O)O)cc21` [Compound 164B, 2-[(4-{6-[(4-cyano-2-fluorobenzyl)oxy]pyridin-2-yl}piperidin-1-yl)methyl]-1-[(1-ethyl-1H-1,2,3-triazol-5-yl)methyl]-1H-benzimidazole-6-carboxylic acid], the EC50 at human GLP-1R [1] amounted to 3.2 nM. At human GLP-1R [2], this compound gave an EC50 of 55 nM and an Emax of 86%.
Consider `C[C@H]1CN(c2cccc(OCc3ccc(Cl)cc3F)n2)CCN1Cc1nc2ccc(C(=O)O)nc2n1C[C@@H]1CCO1` [Compound 136B, 2-{[(2S)-4-{6-[(4-chloro-2-fluorobenzyl)oxy]pyridin-2-yl}-2-methylpiperazin-1-yl]methyl}-3-[(2S)-oxetan-2-ylmethyl]-3H-imidazo[4,5-b]pyridine-5-carboxylic acid], for which, at human GLP-1R [1], a half-maximal response (EC50) required 150 nM and the Emax is 86%. On human GLP-1R [2], this compound yielded an EC50 of 4100 nM and an Emax of 110%.
In the case of `CO[C@@H]1CCC[C@@H]1Cn1c(CN2CCC(c3cccc(OCc4ccc(Cl)cc4F)n3)CC2)nc2ccc(C(=O)O)cc21` (racemic) [Compound 196B, rac-2-[(4-{6-[(4-chloro-2-fluorobenzyl)oxy]pyridin-2-yl}piperidin-1-yl)methyl]-1-{[(1S,2S)-2-methoxycyclopentyl]methyl}-1H-benzimidazole-6-carboxylic acid], at human GLP-1R [1], the EC50 worked out at 4.1 nM and the Emax was 67%. At human GLP-1R [2], this compound registered an EC50 of 170 nM and an Emax of 75%.
